Source: patent US11802107B2, “Compounds and methods of use” (Signum Biosciences, Inc., priority 2017, dated 2023)
≈ marks a conversion by molar mass, not a printed value. Read-outs that look alike come from different tables or passages of the source.

Columns and labels:
P. acnes (ATCC 6919) [1] = test: Minimal bactericidal concentration (MBC) against P. acnes; format: cell-based, Propionibacterium acnes; details: Cutibacterium acnes, ATCC6919; P. acnes 10^7 CFU/mL, in PBS, anaerobic conditions
P. acnes (ATCC 6919) [2] = test: Minimal inhibitory concentration (MIC) against P. acnes; format: cell-based, Propionibacterium acnes; details: Cutibacterium acnes, ATCC6919, 72 h, P. acnes ATCC 6919, 10^6 CFU/mL, read-out: MIC
Experimental: To determine minimal inhibitory concentration (MIC), reagents were dissolved in vehicle (5% v/v) and then added to bacteria suspension. P. acnes (ATCC® 6919TM) at 10^6 CFU/mL was incubated with test materials at the concentrations of two-fold serial dilution (0.25-500 μg/mL) and incubated for 72 hours (P. acnes).

IL-8 = test: P. acnes-induced IL-8 on human NHEKs; format: cell-based; details: NHEK, live P. acnes 10^7 CFU, 24 hours, ELISA, read-out: P. acnes-NHEK IL-8 Protein IC50
Experimental: Normal human epidermal keratinocytes (NHEKs) from neonatal donors were obtained from Thermo-Fisher (Cat No. C-001-5C). Cells were cultured in 96-well plates for 24 hours with EpiLife media (Cat No. MEPI500CA) supplemented with keratinocytes growth supplement (Cat No. S0015). On Day 2, media was removed and replaced with supplement-depleted medium for 24 hours. On Day 3, media was removed and cells were pre-treated with test materials ([…]) for 2 hours and later co-treated with test materials and live P. acnes (ATCC® 6919TM) at 10^7 CFU for 24 hours at 37° C. and 5% CO2. After incubation, cell media supernatants were harvested and used to measure pro-inflammatory cytokine levels (IL-8) using ELISA kits (BD Biosciences® #555244). Results were represented as percent of inhibition relative to untreated and P. acnes-only treated cells. IC50 values were determined by non-linear regression analysis using the four-parameter logistic equation.

IL-5 = test: T-cell receptor (anti-CD3/CD28)-induced IL-5 on PBMCs; format: cell-based; details: Homo sapiens, PBMC, anti-CD3/CD28 beads, 24 hours, ELISA, read-out: TCR-PBMCs IL-5 Protein IC50
Experimental: (§1) Cryopreserved human Peripheral Blood Mononuclear cells (PBMCs) from healthy adult donors were obtained from Zen Bio, Inc (Cat No. SER-PBMC-F). Cells were cultured in 96-well plates with lymphocyte media (Cat No. LYMPH-1) and were pre-treated with test materials (≤100 μM) for 2 hours and later co-treated with test materials and anti-CD3/CD28 beads (Thermo-Fisher; Cat No. 11131D) at 1:0.4 PBMC:bead ratio for 24 hours at 37° C. and 5% CO2. After incubation, cell media supernatants were harvested and used to measure cytokine levels (IL-4, IL-5, IL-10) using ELISA kits (BD Biosciences® #555194, #555157; R&D Systems® #DY317). Results were represented as percent of inhibition relative to untreated and anti-CD3/CD28 beads-only treated cells. IC50 values were determined by non-linear regression analysis using the four-parameter logistic equation.

Balb/C mice = test: Oxazolone-induced delayed-type hypersensitivity (DTH) in vivo model; details: Mus musculus, topical to ears @ 3% w/v, 24 hours, read-out: Edema % inhibition
Experimental: Inbred male Balb/C mice were purchased from Hilltop Lab Animals (Scottdale, PA) and were used between 8 and 10 weeks of age. Mice backs were shaved and 100 μl of 3% v/v Oxazolone (Sigma Aldrich, Cat No. E0753) in acetone/olive oil (4:1) was applied to dorsal skin for sensitization. On Day 7, ears were challenged with 0.5% v/v Oxazolone and 30 minutes after challenge, test materials at 3% w/v were applied to ears (10 μl applied both to the dorsal and ventral surfaces of the mouse ear using a solvent pipette) and 24 hours later, skin thickness (edema) was measured. A 6-mm punch biopsy was obtained from each ear, snap frozen in liquid nitrogen. Ear skin biopsy punches were pulverized using FastPrep®-24 Biopulverizer (MP Biomedical, CatNo. 116004500) and Lysing Matrix A tubes (CatNo. 16910050). Protein extracts were obtained using 500 μL/tissue of cold T-PER buffer (ThermoFisher, CatNo. 78510) with Protease inhibitors (Sigma-Aldich, CatNo. 58820-20TAB). Soluble protein fractions were used to measure cytokine levels (IL-4) using ELISA kit (BD Biosciences® #555232). Results were represented as percent of inhibition relative to unsensitized and sensitized-only treated animals. Vehicle for presently disclosed compounds was 60:40 H2O:EtOH and 1:1 Acetone:EtOH for AN2718. (n=5-15 animals per treatment group).
Compound C was further analyzed at various dosages against 0.4 mg/ear of […] by the above protocol, data representing the average±S.E. of cumulative data from three independent experiments (n=12-15 mice per group) is shown below: […]

IL-10 = test: T-cell receptor (anti-CD3/CD28)-induced IL-10 on PBMCs; format: cell-based; details: Homo sapiens, PBMC, anti-CD3/CD28 beads, 24 hours, ELISA, read-out: TCR-PBMCs IL-10 Protein IC50
Experimental: as §1

IL-4 = test: T-cell receptor (anti-CD3/CD28)-induced IL-4 on PBMCs; format: cell-based; details: Homo sapiens, PBMC, anti-CD3/CD28 beads, 24 hours, ELISA, read-out: TCR-PBMCs IL-4 Protein IC50
Experimental: as §1

IL17A (IL-17A) = test: P. acnes-induced IL-17 gene on human PBMCs (qPCR); format: cell-based; details: PBMC, PBMCs + live P. acnes 1:1, test material 30 PM, 24 hours
Experimental: (§2) Cryopreserved human Peripheral Blood Mononuclear cells (PBMCs) from healthy adult donors were obtained from Zen Bio, Inc (Cat No. SER-PBMC-F). Cells were cultured in 12-well plates with lymphocyte media (Cat No. LYMPH-1) and incubated with test materials ([…]) and live P. acnes (ATCC® 6919TM) at 1:1 PBMC: P. acnes bacteria ratio for 24 hours at 37° C. and 5% CO2. After incubation, cell media supernatants were harvested and used to measure pro-inflammatory cytokine levels (IL-8, TNF-α, IL-1b, IL-17) using ELISA kits (BD Biosciences® #557966, #555212, #555244; R&D Systems® #DY317). Total RNA was extracted from cells using the RNAqueous® kit (Ambion®; Cat No. 1912) and cDNA was obtained using the High Capacity RNA-to-cDNA kit (Applied Biosystems®; Cat No. 4387406). Quantitative PCR (qPCR) was performed using the TaqMan® Fast Advanced Master Mix (Applied Biosystems®; Cat No. 4444556) and specific TaqMan®-probes human gene primers CXCL8 (IL-8), IL1B (IL-1b), TNF (TNF-α), IL17A (IL-17A) and GAPDH to calculate the relative gene fold expression change per treatment. Gene expression analysis was performed using the comparative Ct method (also known as the 2-[delta][delta]Ct) approach by comparing the Ct values of P. acnes-only treated cells with the untreated samples and normalized to GAPDH gene expression as endogenous housekeeping gene.

TNF (TNF-α) = test: P. acnes-induced TNF-α gene on human PBMCs (qPCR); format: cell-based; details: PBMC, PBMCs + live P. acnes 1:1, test material 30 PM, 24 hours, read-out: TNFa-Gene % inhibition
Experimental: as §2

IL1B (IL-1b) = test: P. acnes-induced IL-1b gene on human PBMCs (qPCR); format: cell-based; details: PBMC, PBMCs + live P. acnes 1:1, test material 30 PM, 24 hours
Experimental: as §2

CXCL8 (IL-8) = test: P. acnes-induced IL-8 gene on human PBMCs (qPCR); format: cell-based; details: PBMC, PBMCs + live P. acnes 1:1, test material 30 PM, 24 hours
Experimental: as §2

MIC (P. acnes (ATCC 6919) [2])	Compound	inhibition in vivo at 3 % strength (Balb/C mice)	further results
4 µg/mL (≈ 7.67 µM)	C/C(=C\CSCC(Nc1ncc(C(=O)O)cn1)C(=O)O)CCCC(C)CCCC(C)CCCC(C)C (stereo not shown) [BH]		MBC (P. acnes (ATCC 6919) [1]): 16 µg/mL (≈ 30.7 µM)
7 µg/mL (≈ 13.1 µM)	C/C(=C\CSC[C@H](Nc1ncc(C(=O)O)c(C)n1)C(=O)O)CCCC(C)CCCC(C)CCCC(C)C (stereo partly shown) [BL]		MBC (P. acnes (ATCC 6919) [1]): > 62 µg/mL
6 µg/mL (≈ 10.6 µM)	C/C(=C\CSCC(Nc1ccnc(N(C)CC(=O)O)n1)C(=O)O)CCCC(C)CCCC(C)CCCC(C)C (stereo not shown) [BM]		MBC (P. acnes (ATCC 6919) [1]): > 62 µg/mL
8 µg/mL (≈ 14.2 µM)	C/C(=C\CSCC(Nc1nccc(N(C)CC(=O)O)n1)C(=O)O)CCCC(C)CCCC(C)CCCC(C)C (stereo not shown) [BN]		MBC (P. acnes (ATCC 6919) [1]): 31 µg/mL (≈ 54.9 µM)
	C[C@H]1C[C@H]2[C@@H]3CCC4=CC(=O)C=C[C@]4(C)[C@@]3(F)[C@@H](O)C[C@]2(C)[C@@]1(O)C(=O)CCl [Clobetasol, reference compound]		IC50 (IL-8): 0.033 µM
24 µg/mL (≈ 41.9 µM)	CSCCC(NC(C)=O)C(=O)NC(CSC/C=C(\C)CCCC(C)CCCC(C)CCCC(C)C)C(=O)O (stereo not shown) [Compound B]	48%	IC50 (IL-5): 50 µM; IC50 (IL-10): 46 µM; IC50 (IL-4): 52 µM
> 250 µg/mL	C/C(=C\CSCC(NC(=O)CCCCCCCCC(=O)O)C(=O)O)CCCC(C)CCCC(C)CCCC(C)C (stereo not shown) [D]	53%	IC50 (IL-5): > 100 µM; IC50 (IL-10): 100 µM; IC50 (IL-4): > 100 µM
6 µg/mL (≈ 12 µM)	C/C(=C\CSCC(NC(=O)CCC(N)=O)C(=O)O)CCCC(C)CCCC(C)CCCC(C)C (stereo not shown) [F]		IC50 (IL-8; Homo sapiens): 1.69 µM
6 µg/mL (≈ 10.6 µM)	C/C(=C\CSCC(NC(=O)c1ccc(O)c(C(=O)O)c1)C(=O)O)CCCC(C)CCCC(C)CCCC(C)C (stereo not shown) [H]	14%	IC50 (IL-8; Homo sapiens): 0.02 µM
> 16 µg/mL	CCN(CC(=O)O)C(=O)NC(CSC/C=C(\C)CCCC(C)CCCC(C)CCCC(C)C)C(=O)O (stereo not shown) [I]	36%	inhibition at 30 pM (IL17A (IL-17A)): 7%; inhibition at 30 pM (TNF (TNF-α)): 0%; inhibition at 30 pM (IL1B (IL-1b)): 86%; inhibition at 30 pM (CXCL8 (IL-8)): 52%
32 µg/mL (≈ 57.5 µM)	CC(=O)N[C@@H](CC(=O)O)C(=O)NC(CSC/C=C(\C)CCCC(C)CCCC(C)CCCC(C)C)C(=O)O (stereo partly shown) [J]	10%	
125 µg/mL (≈ 224 µM)	CC(=O)NC(CC(=O)NC(CSC/C=C(\C)CCCC(C)CCCC(C)CCCC(C)C)C(=O)O)C(=O)O (stereo not shown) [Q]		inhibition at 30 pM (IL17A (IL-17A)): 72%; inhibition at 30 pM (TNF (TNF-α)): 0%; inhibition at 30 pM (IL1B (IL-1b)): 59%; inhibition at 30 pM (CXCL8 (IL-8)): 14%
> 25 µg/mL	CC(=O)NC(COC(C)(C)C)C(=O)NC(CSC/C=C(\C)CCCC(C)CCCC(C)CCCC(C)C)C(=O)O (stereo not shown) [R]	24%	
19 µg/mL (≈ 33.1 µM)	C/C(=C\CSCC(NC(=O)C(O)(CC(=O)O)CC(=O)O)C(=O)O)CCCC(C)CCCC(C)CCCC(C)C (stereo not shown) [U]	18%	
> 4 µg/mL	C/C(=C\CSCC(NC(=O)c1cc(O)c(O)c(O)c1)C(=O)O)CCCC(C)CCCC(C)CCCC(C)C (stereo not shown) [V]	5%	IC50 (IL-8; Homo sapiens): 0.003 µM; MBC (P. acnes (ATCC 6919) [1]): > 25 µg/mL; inhibition at 30 pM (IL17A (IL-17A)): 0%; inhibition at 30 pM (TNF (TNF-α)): 0%; inhibition at 30 pM (IL1B (IL-1b)): 83%; inhibition at 30 pM (CXCL8 (IL-8)): 46%
62 µg/mL (≈ 115 µM)	C/C(=C\CSCC(N/C(=N/C#N)N(C)CC(=O)O)C(=O)O)CCCC(C)CCCC(C)CCCC(C)C (stereo not shown) [W]	22%	
> 25 µg/mL	C/C(=C\CSCC(NC(=O)c1ccc(C(=O)O)cc1)C(=O)O)CCCC(C)CCCC(C)CCCC(C)C (stereo not shown) [X]	15%	
50 µg/mL (≈ 90.1 µM)	C/C(=C\CSCC(NC(=O)N1CCC(C(=O)O)CC1)C(=O)O)CCCC(C)CCCC(C)CCCC(C)C (stereo not shown) [Y]	0%	
